Test system: total yeast genomic DNA
Assay: Yeast proteome chip probed with labeled genomic DNA
Assay type: binding
Details: Cy3-labeled genomic DNA, visual inspection
From the text: Protein-DNA and protein-RNA interactions are important for many fundamental biological functions such as transcription regulation, chromosome segregation and maintenance, and RNA transport and processing (Williamson, 2000, Nat. Struct. Biol. 7(10):834-7). To explore the possibility of using a proteome chip to identify proteins that bind to DNA or RNA molecules, total yeast genomic DNA was labeled using Cy3-CTP and Klenow fragment, and polyA^+ was labeled using a biotinylated psoralen-derivative (31). Each probe was incubated with a different proteome chip (FIG. 3A).
The protein-nucleic acid interaction was assayed as follows. The nucleic acid robes were labeled as described by Winzeler et al. (1999, Science 285:901). Blocked proteome chips were washed three to five times in PBS buffer, and the extra liquid on the glass surface was removed by tapping the slides vertically on a KIMWIPE™. 200 μl of labeled nuclei acid probe ([…] poly(dC/dG); 100-300 mM NaCl; 50-300 mM HEPES, pH 7.0-8.5; 10 mM MgCl2) was added to the proteome chip and immediately covered by a hydrophobic plastic cover slip (GRACE BIO-LABS™, USA). After trapped air bubbles were removed, the chip was incubated in a humidity chamber in the dark at room temperature (“RT”) for one hour. To remove the cover slip, the chip was immersed into large volume of PBS buffer(>50 ml), so that the slip would float away. […]

Substance: Gcd11p: gamma subunit of translation initiation factor eIF2
- binding of genomic DNA probe: tested positive
